Measured values: PubChem BioAssay AID248 (DTP/NCI, 2004)
Where “and” joins values, the source holds several entries; their conditions need not be identical. Equal entries are not always repeated. Inconclusive results and toxic doses are left out. No stated cut-off is given here; in the data, active means T/C of 150% or more; inactive means T/C below 125%.

System: L1210 leukemia ip in BDF1 mice, survival T/C
Test: NCI In Vivo Anticancer Drug Screen. Data for tumor model L1210 Leukemia (intraperitoneal) in B6D2F1 (BDF1) mice
Settings: endpoint: mean survival time, higher = longer survival
How it was run: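 Survival endpoint. Drug-treated group vs vehicle group, expressed as T divided by C. Tumor passaged by transplantation.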

[1] = dose: 100.0 mg/kg/injection, schedule: Q04DX002 (ip), vehicle: Klucel (hydroxypropylcellulose) (HPC)
[2] = dose: 200.0 mg/kg/injection, schedule: Q04DX002 (ip), vehicle: Klucel (hydroxypropylcellulose) (HPC)
[3] = dose: 400.0 mg/kg/injection, schedule: Q04DX002 (ip), vehicle: Klucel (hydroxypropylcellulose) (HPC)
[4] = dose: 100.0 mg/kg/injection, schedule: Q04DX003 (ip), vehicle: saline
[5] = dose: 200.0 mg/kg/injection, schedule: Q04DX003 (ip), vehicle: saline
[6] = dose: 400.0 mg/kg/injection, schedule: Q04DX003 (ip), vehicle: saline
[7] = dose: 50.0 mg/kg/injection, schedule: Q01DX009 (ip), vehicle: saline with Tween-80
[8] = dose: 100.0 mg/kg/injection, schedule: Q01DX009 (ip), vehicle: saline with Tween-80
[9] = dose: 200.0 mg/kg/injection, schedule: Q01DX009 (ip), vehicle: saline with Tween-80
[10] = dose: 100.0 mg/kg/injection, schedule: Q01DX001 (ip), vehicle: carboxymethylcellulose (CMC)
[11] = dose: 200.0 mg/kg/injection, schedule: Q01DX001 (ip), vehicle: carboxymethylcellulose (CMC)
[12] = dose: 400.0 mg/kg/injection, schedule: Q01DX001 (ip), vehicle: carboxymethylcellulose (CMC)
[13] = dose: 100.0 mg/kg/injection, schedule: Q01DX009 (ip), vehicle: saline
[14] = dose: 100.0 mg/kg/injection, schedule: Q04DX003 (ip), vehicle: saline with Tween-80
[15] = dose: 400.0 mg/kg/injection, schedule: Q01DX009 (ip), vehicle: saline with Tween-80
[16] = dose: 100.0 mg/kg/injection, schedule: Q04DX002 (ip), vehicle: saline with Tween-80

Measured: T/C

COC1CCC(/C=C(\C#N)C2CCC(OC)CC2)CC1 (stereo unspecified)
inactive: [1] 96 % of control | [2] 92 % of control | [3] 96 % of control

CN(C)Cc1ccccc1COC(=O)c1ccc([N+](=O)[O-])cc1
inactive: dose: 75.0 mg/kg/injection, schedule: Q04DX002 (ip), vehicle: Klucel (hydroxypropylcellulose) (HPC) 97 % of control | dose: 150.0 mg/kg/injection, schedule: Q04DX002 (ip), vehicle: Klucel (hydroxypropylcellulose) (HPC) 105 % of control | dose: 300.0 mg/kg/injection, schedule: Q04DX002 (ip), vehicle: Klucel (hydroxypropylcellulose) (HPC) 97 % of control

CC(C)N1CCOCC1
inactive: dose: 25.0 mg/kg/injection, schedule: Q01DX009 (ip), vehicle: acetone 94 % of control | dose: 50.0 mg/kg/injection, schedule: Q01DX009 (ip), vehicle: acetone 105 % of control | dose: 100.0 mg/kg/injection, schedule: Q01DX009 (ip), vehicle: acetone 102 % of control

Cn1c(=S)[nH]c2cc(Cl)c(Cl)cc21
inactive: [4] 100 % of control | [5] 105 % of control | [6] 97 % of control

O=C(NNc1ccccc1)NNc1ccccc1 (tested in a mixture with another compound)
inactive: [7] 95 % of control | [8] 95 % of control | [9] 99 % of control

Cc1ccc2nc(N=C(N)N)[nH]c2c1
inactive: dose: 75.0 mg/kg/injection, schedule: Q01DX001 (ip), vehicle: saline 93 % of control | dose: 150.0 mg/kg/injection, schedule: Q01DX001 (ip), vehicle: saline 94 % of control

CNC(=S)SC
inactive: dose: 50.0 mg/kg/injection, schedule: Q01DX001 (ip), vehicle: saline 90 % of control | dose: 100.0 mg/kg/injection, schedule: Q01DX001 (ip), vehicle: saline 98 % of control | dose: 200.0 mg/kg/injection, schedule: Q01DX001 (ip), vehicle: saline 96 % of control

CCOP(=O)(OCC)c1ccccc1Br
inactive: dose: 100.0 mg/kg/injection, schedule: Q01DX001 (ip), vehicle: acetone 89 % of control | dose: 200.0 mg/kg/injection, schedule: Q01DX001 (ip), vehicle: acetone 87 % of control | dose: 400.0 mg/kg/injection, schedule: Q01DX001 (ip), vehicle: acetone 89 % of control

CCCCC(SC(CC)(C(N)=O)c1ccccc1)C(=O)O (stereo unspecified)
inactive: [10] 90 % of control | [11] 102 % of control | [12] 90 % of control

CC(C)CC(CC(C)C)NCC(C)OC(=O)c1ccc(N)cc1 (stereo unspecified)
inactive: dose: 12.5 mg/kg/injection, schedule: Q01DX009 (ip), vehicle: saline with Tween-80 96 % of control and 104 % of control | dose: 12.5 mg/kg/injection, schedule: Q04DX003 (ip), vehicle: saline with Tween-80 92 % of control | dose: 25.0 mg/kg/injection, schedule: Q01DX009 (ip), vehicle: saline with Tween-80 102 % of control and 105 % of control | dose: 25.0 mg/kg/injection, schedule: Q01DX009 (ip), vehicle: saline 98 % of control | dose: 25.0 mg/kg/injection, schedule: Q04DX003 (ip), vehicle: saline with Tween-80 104 % of control | dose: 25.0 mg/kg/injection, schedule: Q04DX003 (ip), vehicle: saline 100 % of control | [7] 96 % of control and 106 % of control | dose: 50.0 mg/kg/injection, schedule: Q01DX009 (ip), vehicle: saline 100 % of control | dose: 50.0 mg/kg/injection, schedule: Q04DX003 (ip), vehicle: saline with Tween-80 93 % of control | dose: 50.0 mg/kg/injection, schedule: Q04DX003 (ip), vehicle: saline 96 % of control | dose: 75.0 mg/kg/injection, schedule: Q01DX001 (ip), vehicle: other 92 % of control | [13] 88 % of control | [4] 102 % of control and 91 % of control

O=C(O)CC(Br)C(=O)O (stereo unspecified)
inactive: [4] 98 % of control | [5] 102 % of control

O=c1cc(Cl)c2ccccc2[nH]1
inactive: [8] 95 % of control | [14] 103 % of control | [9] 91 % of control | dose: 200.0 mg/kg/injection, schedule: Q04DX003 (ip), vehicle: saline with Tween-80 94 % of control | [15] 100 % of control | dose: 400.0 mg/kg/injection, schedule: Q04DX003 (ip), vehicle: saline with Tween-80 103 % of control

CCOC(=O)/C=C/C(=O)O.[Fe]
inactive: [4] 101 % of control | [5] 95 % of control | [6] 101 % of control

CCOC(=O)c1ccc(NS(=O)(=O)c2ccc(NC(C)=O)cc2)cc1
inactive: [1] 88 % of control | [2] 94 % of control | [3] 103 % of control

Cc1ccnc(NS(=O)(=O)c2ccc(N=Nc3c(N)[nH]c(=S)[nH]c3=O)cc2)n1
inactive: [10] 97 % of control | [11] 95 % of control | [12] 95 % of control

CCCCSCCSC(=N)N
inactive: dose: 25.0 mg/kg/injection, schedule: Q04DX002 (ip), vehicle: saline with Tween-80 100 % of control | dose: 50.0 mg/kg/injection, schedule: Q04DX002 (ip), vehicle: saline with Tween-80 103 % of control | [16] 103 % of control

S=P(c1ccccc1)(c1ccccc1)N1CCCCC1
inactive: [16] 96 % of control | dose: 200.0 mg/kg/injection, schedule: Q04DX002 (ip), vehicle: saline with Tween-80 93 % of control | dose: 400.0 mg/kg/injection, schedule: Q04DX002 (ip), vehicle: saline with Tween-80 93 % of control

FC(F)(F)c1cccc(NC(=S)NNC(=S)NNc2ccccc2)c1
inactive: [1] 101 % of control | [2] 101 % of control | [3] 101 % of control

CC(C)NC(=O)Oc1cccc(NC(=O)N(C)C)c1
inactive: [8] 93 % of control | [9] 93 % of control | [15] 93 % of control

O=Nc1ccc(SCC(=O)NNC(=O)CSc2ccc(N=O)cc2[N+](=O)[O-])cc1
inactive: [14] 93 % of control

CCCCCCCCOc1ccc(C(=O)O)cc1
inactive: [8] 96 % of control | [9] 96 % of control | [15] 92 % of control

O=C(CCl)N1c2ccccc2Oc2cc3ccccc3cc21
inactive: [13] 100 % of control | [4] 95 % of control | dose: 200.0 mg/kg/injection, schedule: Q01DX009 (ip), vehicle: saline 90 % of control | [5] 101 % of control | dose: 400.0 mg/kg/injection, schedule: Q01DX009 (ip), vehicle: saline 92 % of control | [6] 92 % of control

COc1ccccc1/C=N\NC(=O)C1CC1
inactive: dose: 15.0 mg/kg/injection, schedule: Q01DX Z (ip), vehicle: carboxymethylcellulose (CMC) 102 % of control | dose: 30.0 mg/kg/injection, schedule: Q01DX Z (ip), vehicle: carboxymethylcellulose (CMC) 97 % of control | dose: 60.0 mg/kg/injection, schedule: Q01DX Z (ip), vehicle: carboxymethylcellulose (CMC) 97 % of control and 101 % of control | dose: 120.0 mg/kg/injection, schedule: Q01DX Z (ip), vehicle: carboxymethylcellulose (CMC) 101 % of control and 102 % of control | dose: 240.0 mg/kg/injection, schedule: Q01DX Z (ip), vehicle: carboxymethylcellulose (CMC) 98 % of control | dose: 480.0 mg/kg/injection, schedule: Q01DX Z (ip), vehicle: carboxymethylcellulose (CMC) 101 % of control | dose: 480.0 mg/kg/injection, schedule: Q01DX Z (oral), vehicle: carboxymethylcellulose (CMC) 106 % of control | dose: 960.0 mg/kg/injection, schedule: Q01DX Z (oral), vehicle: carboxymethylcellulose (CMC) 93 % of control
